{"source": "paper PMC9090415", "about": "“Discovery of small molecule inhibitors of Plasmodium falciparum apicoplast DNA polymerase” (Journal of Enzyme Inhibition and Medicinal Chemistry, 2022)", "target": "P. falciparum apicoplast DNA polymerase (Pf-apPOL) (Plasmodium falciparum, UniProt Q8ILY1)", "sequence (Q8ILY1 entry or part of it)": "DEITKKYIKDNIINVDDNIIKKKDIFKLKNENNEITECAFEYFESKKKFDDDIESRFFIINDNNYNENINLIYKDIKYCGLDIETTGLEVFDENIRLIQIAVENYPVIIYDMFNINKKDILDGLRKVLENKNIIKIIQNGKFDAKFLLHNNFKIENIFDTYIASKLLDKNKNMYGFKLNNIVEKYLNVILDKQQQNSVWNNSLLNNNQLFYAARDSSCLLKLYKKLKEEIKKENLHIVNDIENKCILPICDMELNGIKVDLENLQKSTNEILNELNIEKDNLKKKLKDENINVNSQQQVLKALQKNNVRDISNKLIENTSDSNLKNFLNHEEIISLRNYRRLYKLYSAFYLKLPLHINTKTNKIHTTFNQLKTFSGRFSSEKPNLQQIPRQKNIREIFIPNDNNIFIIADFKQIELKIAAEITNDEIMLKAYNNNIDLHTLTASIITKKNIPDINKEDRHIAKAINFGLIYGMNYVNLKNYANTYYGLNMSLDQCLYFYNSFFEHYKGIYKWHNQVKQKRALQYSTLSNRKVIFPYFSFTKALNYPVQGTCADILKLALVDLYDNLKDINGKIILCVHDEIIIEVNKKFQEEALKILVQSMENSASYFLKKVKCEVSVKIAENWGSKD", "test": "Fluorescence-based high-throughput DNA polymerase assay (molecular beacon), primary screen and dose-response", "assay_type": "biochemical", "conditions": "for DNA Pol: unit not given, 90 min, 10 µM; for % inhibition apPOL 180' 2.5 / % inhibition apPOL 180' 5 / % inhibition apPOL 180' 10 / % inhibition apPOL 180' 20 / % inhibition apPOL 180' 40 / % inhibition apPOL 180' 80: read at 180'", "summary_of_the_method": "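Single-point screening used 10 µM compound with 20 nM polymerase, 20 nM hairpin substrate and 6 µM dNTPs for 90 min at 25 °C. Confirmatory titrations (2.5–80 µM) followed fluorescence at three times, and IC50 was derived from a fit including a cooperativity term n.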"}
{"compound": "Cc1nc(C)c2c(n1)N(CC1CCCCC1)C(=O)CC2", "note": "[KU0218606]", "values": [{"measurement": "DNA Pol", "setting": "186 hits, DNA Pol (screen value)", "result": 50}, {"measurement": "DNA Pol", "setting": "'DNA Pol' (screen value)", "result": 50}, {"measurement": "% inhibition Apo pol 10' 2.5", "setting": "DRC-1, read at 10', concentration 2.5", "result": 34.0428, "unit": "%"}, {"measurement": "% inhibition Apo pol 10' 5", "setting": "DRC-1, read at 10', concentration 5", "result": 39.9001, "unit": "%"}, {"measurement": "% inhibition Apo pol 10' 10", "setting": "DRC-1, read at 10', concentration 10", "result": 47.3749, "unit": "%"}, {"measurement": "% inhibition Apo pol 10' 20", "setting": "DRC-1, read at 10', concentration 20", "result": 48.9825, "unit": "%"}, {"measurement": "% inhibition Apo pol 10' 40", "setting": "DRC-1, read at 10', concentration 40", "result": 54.7667, "unit": "%"}, {"measurement": "% inhibition Apo pol 10' 80", "setting": "DRC-1, read at 10', concentration 80", "result": 55.4322, "unit": "%"}, {"measurement": "% inhibition Apol 90' 2.5", "setting": "DRC-1, read at 90', concentration 2.5", "result": 24.6813, "unit": "%"}, {"measurement": "% inhibition Apol 90' 5", "setting": "DRC-1, read at 90', concentration 5", "result": 31.9392, "unit": "%"}, {"measurement": "% inhibition Apol 90' 10", "setting": "DRC-1, read at 90', concentration 10", "result": 42.478, "unit": "%"}, {"measurement": "% inhibition Apol 90' 20", "setting": "DRC-1, read at 90', concentration 20", "result": 47.74, "unit": "%"}, {"measurement": "% inhibition Apol 90' 40", "setting": "DRC-1, read at 90', concentration 40", "result": 54.1171, "unit": "%"}, {"measurement": "% inhibition Apol 90' 80", "setting": "DRC-1, read at 90', concentration 80", "result": 56.5278, "unit": "%"}, {"measurement": "% inhibition apPOL 180' 2.5", "setting": "DRC-1, concentration 2.5", "result": 16.0854, "unit": "%"}, {"measurement": "% inhibition apPOL 180' 5", "setting": "DRC-1, concentration 5", "result": 24.5851, "unit": "%"}, {"measurement": "% inhibition apPOL 180' 10", "setting": "DRC-1, concentration 10", "result": 35.963, "unit": "%"}, {"measurement": "% inhibition apPOL 180' 20", "setting": "DRC-1, concentration 20", "result": 43.6778, "unit": "%"}, {"measurement": "% inhibition apPOL 180' 40", "setting": "DRC-1, concentration 40", "result": 53.1041, "unit": "%"}, {"measurement": "% inhibition apPOL 180' 80", "setting": "DRC-1, concentration 80", "result": 57.3534, "unit": "%"}, {"measurement": "% inhibition Apo pol 5'", "setting": "DRC-2, concentration 5", "result": 24, "unit": "%"}, {"measurement": "% inhibition Apo pol 5'", "setting": "DRC-2, concentration 20", "result": 27, "unit": "%"}, {"measurement": "% inhibition Apo pol 5'", "setting": "DRC-2, concentration 40", "result": 30, "unit": "%"}, {"measurement": "% inhibition Apo pol 5'", "setting": "DRC-2, concentration 80", "result": 27, "unit": "%"}, {"measurement": "% inhibition Apol 40'", "setting": "DRC-2, concentration 2.5", "result": 24, "unit": "%"}, {"measurement": "% inhibition Apol 40'", "setting": "DRC-2, concentration 5", "result": 30, "unit": "%"}, {"measurement": "% inhibition Apol 40'", "setting": "DRC-2, concentration 40", "result": 42, "unit": "%"}, {"measurement": "% inhibition ApPOL 90'", "setting": "DRC-2, concentration 10", "result": 38, "unit": "%"}, {"measurement": "% inhibition ApPOL 90'", "setting": "DRC-2, concentration 20", "result": 42, "unit": "%"}, {"measurement": "% inhibition apPOL 180'", "setting": "DRC-2, concentration 20", "result": 38, "unit": "%"}, {"measurement": "% inhibition apPOL 180'", "setting": "DRC-2, concentration 40", "result": 42, "unit": "%"}, {"measurement": "% inhibition Apo pol 5' 2.5", "setting": "DRC-2, read at 5', concentration 2.5", "result": 20, "unit": "%"}, {"measurement": "% inhibition Apo pol 5' 5", "setting": "DRC-2, read at 5', concentration 5", "result": 24, "unit": "%"}, {"measurement": "% inhibition Apo pol 5' 10", "setting": "DRC-2, read at 5', concentration 10", "result": 28, "unit": "%"}, {"measurement": "% inhibition Apo pol 5' 20", "setting": "DRC-2, read at 5', concentration 20", "result": 27, "unit": "%"}, {"measurement": "% inhibition Apo pol 5' 40", "setting": "DRC-2, read at 5', concentration 40", "result": 30, "unit": "%"}, {"measurement": "% inhibition Apo pol 5' 80", "setting": "DRC-2, read at 5', concentration 80", "result": 27, "unit": "%"}, {"measurement": "% inhibition Apol 40' 2.5", "setting": "DRC-2, read at 40', concentration 2.5", "result": 24, "unit": "%"}, {"measurement": "% inhibition Apol 40' 5", "setting": "DRC-2, read at 40', concentration 5", "result": 30, "unit": "%"}, {"measurement": "% inhibition Apol 40' 10", "setting": "DRC-2, read at 40', concentration 10", "result": 36, "unit": "%"}, {"measurement": "% inhibition Apol 40' 20", "setting": "DRC-2, read at 40', concentration 20", "result": 39, "unit": "%"}, {"measurement": "% inhibition Apol 40' 40", "setting": "DRC-2, read at 40', concentration 40", "result": 42, "unit": "%"}, {"measurement": "% inhibition Apol 40' 80", "setting": "DRC-2, read at 40', concentration 80", "result": 41, "unit": "%"}, {"measurement": "% inhibition ApPOL 90' 2.5", "setting": "DRC-2, read at 90', concentration 2.5", "result": 25, "unit": "%"}, {"measurement": "% inhibition ApPOL 90' 5", "setting": "DRC-2, read at 90', concentration 5", "result": 31, "unit": "%"}, {"measurement": "% inhibition ApPOL 90' 10", "setting": "DRC-2, read at 90', concentration 10", "result": 38, "unit": "%"}, {"measurement": "% inhibition ApPOL 90' 20", "setting": "DRC-2, read at 90', concentration 20", "result": 42, "unit": "%"}, {"measurement": "% inhibition ApPOL 90' 40", "setting": "DRC-2, read at 90', concentration 40", "result": 45, "unit": "%"}, {"measurement": "% inhibition ApPOL 90' 80", "setting": "DRC-2, read at 90', concentration 80", "result": 47, "unit": "%"}, {"measurement": "% inhibition apPOL 180' 2.5", "setting": "DRC-2, concentration 2.5", "result": 18, "unit": "%"}, {"measurement": "% inhibition apPOL 180' 5", "setting": "DRC-2, concentration 5", "result": 26, "unit": "%"}, {"measurement": "% inhibition apPOL 180' 10", "setting": "DRC-2, concentration 10", "result": 34, "unit": "%"}, {"measurement": "% inhibition apPOL 180' 20", "setting": "DRC-2, concentration 20", "result": 38, "unit": "%"}, {"measurement": "% inhibition apPOL 180' 40", "setting": "DRC-2, concentration 40", "result": 42, "unit": "%"}, {"measurement": "% inhibition apPOL 180' 80", "setting": "DRC-2, concentration 80", "result": 46, "unit": "%"}]}
